{"source": "paper PMC8150690", "about": "“Effects of Extraction Conditions on Banana Peel Polyphenol Oxidase Activity and Insights into Inactivation Kinetics Using Thermal and Cold Plasma Treatment” (Foods, 2021)", "assay_type_in_all_cases": "biochemical, Musa acuminata x Musa balbisiana", "key": {"[1]": {"test_system": "T1, 'Prata' banana peel polyphenol oxidase (PPO)", "T1 construct": "native crude extract of freeze-dried peel (McIlvaine buffer pH 6.5, PVP, Triton X-100); not purified; o-diphenol oxidase activity", "assay": "spectrophotometric initial rate, […] nm, non-linear Michaelis-Menten fit", "details": "crude extract; McIlvaine buffer pH 6.5, 30 °C; O2 co-substrate"}, "[2]": {"test_system": "T1, 'Prata' banana peel polyphenol oxidase (PPO)", "assay": "spectrophotometric initial rate, […] nm, non-linear Michaelis-Menten fit", "details": "crude extract; McIlvaine buffer pH 6.5, 30 °C; O2 co-substrate", "remark": "listed apart in the source"}, "[3]": {"test_system": "T1, 'Prata' banana peel polyphenol oxidase (PPO)", "assay": "spectrophotometric, […] nm, proline-catechol adduct formation, non-linear Michaelis-Menten fit", "details": "crude extract; McIlvaine buffer pH 6.5, 30 °C; constant 50 mM L-proline as coupling agent; O2 co-substrate; read-out: apparent KM"}}}
{"smiles": "O=C(/C=C/c1ccc(O)c(O)c1)O[C@@H]1C[C@](O)(C(=O)O)C[C@@H](O)[C@H]1O", "note": "[Chlorogenic acid]", "values": [{"measurement": "Km", "setting": "[1]", "value": "7.54 ± 0.51", "unit": "mM"}]}
{"smiles": "NCCc1ccc(O)c(O)c1", "note": "[Dopamine]", "values": [{"measurement": "Km", "setting": "[2]", "value": "0.94 ± 0.07", "unit": "mM"}]}
{"smiles": "Cc1ccc(O)c(O)c1", "note": "[4-methylcatechol]", "values": [{"measurement": "Km", "setting": "[3]", "value": 4.01, "unit": "mM"}]}
